Reference: patent publication US10028992B2, “Methods of treating muscular dystrophy” (BOARD OF REGENTS OF THE NEVADA SYSTEM OF HIGHER EDUCATION …, priority 2012, dated 2018)
Read-outs that look alike come from different tables or passages of the source.

System: α7 integrin promoter
Experiment: muscle cell-based assay: α7βgal+/− myoblasts/myotubes, LacZ reporter, β-galactosidase cleavage of FDG
Set-up: species or system mouse
Procedure: An α7 integrin null mouse was produced in which exon 1 of the gene encoding the α7 integrin was replaced by the LacZ reporter. In these mice, all the transcriptional regulatory elements of the α7 integrin promoter were retained, allowing β-galactosidase to report expression of 7 integrin. A primary myoblast cell line (designated α7βgal^+/−) isolated from 10 day old α7^+/− pups were analyzed for the ability of β-galactosidase to report α7 integrin expression. α7βgal^+/− myoblasts were differentiated and subjected to X-gal staining and western analysis (FIGS. 1A and 1B).
The activity of the α7 integrin promoter was measured by β-galactosidase cleavage of the non-fluorescent compound fluorescein di-β-D-galactopyranoside (FDG) to fluorescein. This assay was used to screen compound libraries to identify molecules that up-regulate α7 integrin expression in muscle.
Also evaluated was the effect of various isoforms of laminin and the ligand for α7β1 integrin on integrin expression. Positive hits were subjected to dose-response analysis, western analysis and a myostatin counterscreen (a negative regulator of muscle growth).

[1] = Mus musculus; Table 12; log of AC50, given with negative sign; unit of AC50 not given; read-out: Fit Log AC50 (converted)
[2] = Mus musculus; read-out: Max Response [%]
[3] = Table 12; fitted activity at zero concentration
[4] = Table 12 Compound data; concentration-response curve fit

| Structure (SMILES) | AC50 [1] | Emax [2] | Fit HillSlope (Table 12; curve fit) | Fit Zero Activity [%] [3] | Fit Curve Class (Table 12; key not given) | Score [4] | Activity at 38.30 μM [%] ** (38.30 μM) | Fit Infinite Activity [%] (Table 12; fitted activity at infinite concentration) | Activity at 1.530 μM [%] ** (1.530 μM) | Activity at 0.307 μM [%] ** (0.307 μM) | Curve Description | Fit Curve Class | Fit HillSlope | Fit Zero Activity [%] | Score | AC50 (Mus musculus, read-out: Fit Log AC50 (converted)) | Emax (Mus musculus, read-out: Max Response [%]) |
| --- | --- | --- | --- | --- | --- | --- | --- | --- | --- | --- | --- | --- | --- | --- | --- | --- | --- |
| COc1ccc(NC(=O)c2cccc(N3C(=O)c4ccc(C(=O)Nc5ccc(OC)c(O)c5)cc4C3=O)c2)cc1O [Compound 13] | 4.47 µM | 95.6% | 3.9295 | −27.2857% | 1.1 | 84 | – | – | – | – | – | – | – | – | – | – | – |
| CCOc1ccc(S(=O)(=O)NCCC(=O)NCC(c2cccs2)N2CCOCC2)cc1 (stereo not drawn) [Compound 14] | 2.24 µM | 61.7% | 2.3332 | −21.9345% | 1.1 | 84 | – | – | – | – | – | – | – | – | – | – | – |
| CCOc1ccccc1NC(=O)c1cccc2c1C(=O)N(C1CCCCC1)C2 [Compound 15] | 3.16 µM | 73.6% | 1.6259 | −16.1195% | 1.1 | 84 | – | – | – | – | – | – | – | – | – | – | – |
| NC(=O)c1nsc(C(=O)N(c2ccccc2)C(C(=O)NCc2ccc(F)cc2)c2ccc(O)cc2)c1N (stereo not drawn) [Compound 16] | 2.24 µM | 75.2% | 1.3443 | −37.8568% | 1.1 | 84 | – | – | – | – | – | – | – | – | – | – | – |
| CCc1ccc(N(C(=O)c2snc(C(N)=O)c2N)C(C(=O)NC2CCCC2)c2ccco2)cc1 (stereo not drawn) [Compound 17] | 2.51 µM | 67.6% | 1.2475 | −24.7641% | 1.1 | 84 | – | – | – | – | – | – | – | – | – | – | – |
| COC(=O)C(=O)C/C(=N/Nc1ncnc2ccccc12)c1ccc(Cl)cc1 [Compound 18] | 10 µM | – | 4.9549 | 8.7984% | 2.1 | 84 | 1767.43% | 1760.36% | – | – | – | – | – | – | – | – | – |
| Cc1cc(NC(=O)c2ccc(Cl)cc2Cl)no1 [Compound 19] | 1.41 µM | 52.1% | 1.3437 | −28.8963% | 1.1 | 84 | – | – | – | – | – | – | – | – | – | – | – |
| CCOC(=O)Cc1csc(NC(=S)NC(=O)c2cc(OC)c(OC)c(OC)c2)n1 [Compound 20] | 3.55 µM | 82.9% | 2.3031 | −17.7204% | 1.1 | 84 | – | – | – | – | – | – | – | – | – | – | – |
| CC(C)CC1NC(=O)N(CC(=O)N2c3ccccc3NC(=O)C2(C)C)C1=O (stereo not drawn) [Compound 21] | 5.62 µM | 93.3% | 4.4495 | 1.1731% | 1.1 | 84 | – | – | 0% | – | – | – | – | – | – | – | – |
| COCCSc1ccccc1C(=O)Nc1cc(C)cc(C)c1 [Compound 22] | 4.47 µM | 82.9% | 4.9549 | −0.2899% | 1.1 | 84 | – | – | 0% | 0% | – | – | – | – | – | – | – |
| O=c1oc2c(-c3cccc(F)c3)cc(O)cc2s1 [Compound 23] | 3.98 µM | 98.9% | 2.9023 | 13.3122% | 1.1 | 84 | – | – | – | – | – | – | – | – | – | – | – |
| Cc1ccc(C2Nc3cccc4cccc(c34)N2)s1 [Compound 24] | 3.16 µM | 81.3% | 2.1211 | 5.7274% | 1.1 | 84 | – | – | – | – | – | – | – | – | – | – | – |
| COc1cc(=O)n(C)c2ccccc12 [Compound 25] | 2.24 µM | 63% | 1.6604 | −18.7854% | 1.1 | 84 | – | – | – | – | – | – | – | – | – | – | – |
| CCOC(=O)c1sc(=N)n(-c2ccc(OC)cc2)c1C [Compound 26] | 2 µM | 56.1% | 1.1 | −36.1807% | 1.1 | 84 | – | – | – | – | – | – | – | – | – | – | – |
| Cc1ccc(OCC(=O)N2CCN(S(=O)(=O)c3ccc4c(c3)OCCO4)CC2)c(C)c1 [Compound 27] | 2 µM | 53.8% | 2.2526 | −26.8995% | 1.1 | 83 | – | – | – | – | – | – | – | – | – | – | – |
| CC(NC(=O)c1cn(C)c2ccc(S(=O)(=O)N3CCCC3)cc2c1=O)c1ccccc1 (stereo not drawn) [Compound 28] | 2.82 µM | 54.7% | 2.5334 | −36.6914% | 1.1 | 83 | – | – | – | – | – | – | – | – | – | – | – |
| Cc1cc(NC(=O)CCC(=O)N(Cc2cccnc2)C(C(=O)NC(C)(C)C)c2ccccc2Cl)no1 (stereo not drawn) [Compound 29] | 3.98 µM | 54.9% | 1.7885 | −25.4387% | 1.1 | 83 | – | – | – | – | – | – | – | – | – | – | – |
| COc1cc(/C=C2/C(=N)N3C(SC)=NSC3=NC2=O)ccc1OC(=O)c1ccco1 [Compound 30] | 3.98 µM | 73.4% | 2.1876 | −19.157% | 1.1 | 83 | – | – | – | – | – | – | – | – | – | – | – |
| COc1ccccc1CNc1cc(C)ccn1 [Compound 31] | 2.51 µM | 62.3% | 1.9673 | −24.2621% | 1.1 | 83 | – | – | – | – | – | – | – | – | – | – | – |
| Cc1nn(C(C)(C)C)c(C)c1/C=N/OC(=O)Nc1ccc(Cl)c(Cl)c1 [Compound 32] | – | – | – | – | – | – | – | – | – | – | Complete | 1.1 | 2.1211 | −28.5623% | 83 | 2.82 µM | 59.8% |
| CCOC(=O)C1CCCN(C(=O)CNS(=O)(=O)c2ccc(Br)s2)C1 (stereo not drawn) [Compound 33] | 2 µM | 31.1% | 1.1 | −50.1655% | 1.1 | 82 | – | – | – | – | – | – | – | – | – | – | – |
| CCCCNC(=O)CSc1nnc(Cc2ccc(Cl)c(Cl)c2)c(O)n1 [Compound 34] | 1.41 µM | 75.4% | 1.8851 | 5.9015% | 1.2 | 65 | – | – | – | – | – | – | – | – | – | – | – |
| O=Cc1ccc(C(=O)OCC(=O)N2CCCC2)cc1 [Compound 35] | 2.51 µM | 71.8% | 3.132 | −0.1751% | 1.2 | 64 | – | – | – | 0% | – | – | – | – | – | – | – |
| CC(C)/N=C(\S)NN=C1CCCCCCCCCCC1 [Compound 36] | 3.16 µM | 78.6% | 1.4163 | 5.5% | 1.2 | 64 | – | – | – | – | – | – | – | – | – | – | – |
| COc1ccc(S(=O)(=O)N(NC2=NS(=O)(=O)c3ccccc32)C(=O)C(C)C)cc1 [Compound 37] | 2.51 µM | 72.9% | 2.4064 | −2.5935% | 1.2 | 64 | – | – | – | – | – | – | – | – | – | – | – |
